# Assay results published in ChEMBL document CHEMBL4049403, “Oligo-aspartic acid conjugates with benzo[c][2,6]naphthyridine-8-carboxylic acid scaffold as picomolar inhibitors of CK2” (Bioorg Med Chem, 2017).
# pIC50: −log10 of the molar value. Where a SMILES comes first, the peptide text is derived from it. The star is where a group is joined. X1 = O=C(O)c1ccc2c(c1)nc(OCCCCCCCCC(=O)*)c1ccncc12
# Legend:
# [1] = target: Casein kinase II subunit alpha (Homo sapiens, UniProt P68400); test: Inhibition of CK2alpha (unknown origin) (1 to 335 residues) using 5-TAMRA-RADDSDDDDD as substrate after 30 mins by fluorescence imaging method
# [2] = target: Homeodomain-interacting protein kinase 3 (Homo sapiens) (UniProt Q9H422); test: Inhibition of human HIPK3 assessed as residual activity at 1 uM in presence of 33P-ATP by filter-binding assay relative to control
# [3] = target: Mitogen-activated protein kinase 15 (Homo sapiens) (UniProt Q8TD08); test: Inhibition of human ERK8 assessed as residual activity at 1 uM in presence of 33P-ATP by filter-binding assay relative to control
# [4] = target: AMP-activated protein kinase, AMPK (Homo sapiens) (UniProt P54646+O43741+P54619+Q9UGJ0+Q9Y478+Q13131+Q9UGI9); test: Inhibition of human AMPK assessed as residual activity at 1 uM in presence of 33P-ATP by filter-binding assay relative to control
# [5] = target: Ribosomal protein S6 kinase beta-1 (Homo sapiens) (UniProt P23443); test: Inhibition of human S6K1 assessed as residual activity at 1 uM in presence of 33P-ATP by filter-binding assay relative to control
# [6] = target: Mitogen-activated protein kinase kinase kinase 9 (Homo sapiens) (UniProt P80192); test: Inhibition of human MLK1 assessed as residual activity at 1 uM in presence of 33P-ATP by filter-binding assay relative to control
# [7] = target: Ephrin type-B receptor 3 (Homo sapiens) (UniProt P54753); test: Inhibition of human EPHB3 assessed as residual activity at 1 uM in presence of 33P-ATP by filter-binding assay relative to control
# [8] = target: Serine/threonine-protein kinase TAO1 (Homo sapiens) (UniProt Q7L7X3); test: Inhibition of human TAO1 assessed as residual activity at 1 uM in presence of 33P-ATP by filter-binding assay relative to control
# [9] = target: Serine/threonine-protein kinase MARK1 (Homo sapiens) (UniProt Q9P0L2); test: Inhibition of human MARK1 assessed as residual activity at 1 uM in presence of [33P]ATP by filter binding assay relative to control
# [10] = target: Inhibitor of nuclear factor kappa-B kinase subunit beta (Homo sapiens) (UniProt O14920); test: Inhibition of human IKKb assessed as residual activity at 1 uM in presence of [33P]ATP by filter binding assay relative to control
# [11] = target: Testis-specific serine/threonine-protein kinase 1 (Homo sapiens) (UniProt Q9BXA7); test: Inhibition of human TSSK1 assessed as residual activity at 1 uM in presence of [33P]ATP by filter binding assay relative to control
# [12] = target: MAP kinase-interacting serine/threonine-protein kinase 2 (Homo sapiens) (UniProt Q9HBH9); test: Inhibition of human MNK2 assessed as residual activity at 1 uM in presence of [33P]ATP by filter binding assay relative to control
# [13] = target: High affinity nerve growth factor receptor (Homo sapiens) (UniProt P04629); test: Inhibition of human TrkA assessed as residual activity at 1 uM in presence of [33P]ATP by filter binding assay relative to control
# [14] = target: Homeodomain-interacting protein kinase 1 (Homo sapiens) (UniProt Q86Z02); test: Inhibition of human HIPK1 assessed as residual activity at 1 uM in presence of [33P]ATP by filter binding assay relative to control
# [15] = target: Ephrin type-B receptor 4 (Homo sapiens) (UniProt P54760); test: Inhibition of human EPHB4 assessed as residual activity at 1 uM in presence of [33P]ATP by filter binding assay relative to control
# [16] = target: Ephrin type-A receptor 2 (Homo sapiens) (UniProt P29317); test: Inhibition of human EPHA2 assessed as residual activity at 1 uM in presence of [33P]ATP by filter binding assay relative to control
# [17] = target: Serine/threonine-protein kinase N2 (Homo sapiens) (UniProt Q16513); test: Inhibition of human PRK2 assessed as residual activity at 1 uM in presence of [33P]ATP by filter binding assay relative to control
# [18] = target: Serine/threonine-protein kinase ULK1 (Homo sapiens) (UniProt O75385); test: Inhibition of human ULK1 assessed as residual activity at 1 uM in presence of [33P]ATP by filter binding assay relative to control
# [19] = target: Rho-associated protein kinase 2 (Homo sapiens) (UniProt O75116); test: Inhibition of human ROCK2 assessed as residual activity at 1 uM in presence of [33P]ATP by filter binding assay relative to control
# [20] = target: Serine/threonine-protein kinase BRSK2 (Homo sapiens) (UniProt Q8IWQ3); test: Inhibition of human BRSK2 assessed as residual activity at 1 uM in presence of [33P]ATP by filter binding assay relative to control
# [21] = target: Insulin receptor-related protein (Homo sapiens) (UniProt P14616); test: Inhibition of human IRR assessed as residual activity at 1 uM in presence of [33P]ATP by filter binding assay relative to control
# [22] = target: Protein kinase C alpha type (Homo sapiens) (UniProt P17252); test: Inhibition of human PKCa assessed as residual activity at 1 uM in presence of [33P]ATP by filter binding assay relative to control
# [23] = target: Mitogen-activated protein kinase 10 (Homo sapiens) (UniProt P53779); test: Inhibition of human JNK3 assessed as residual activity at 1 uM in presence of [33P]ATP by filter binding assay relative to control
# [24] = target: Dual specificity testis-specific protein kinase 1 (Homo sapiens) (UniProt Q15569); test: Inhibition of human TESK1 assessed as residual activity at 1 uM in presence of [33P]ATP by filter binding assay relative to control
# [25] = target: Ephrin type-B receptor 2 (Homo sapiens) (UniProt P29323); test: Inhibition of human EPH-B2 assessed as residual activity at 1 uM in presence of [33P]ATP by filter binding assay relative to control
# [26] = target: Serine/threonine-protein kinase SIK2 (Homo sapiens) (UniProt Q9H0K1); test: Inhibition of human SIK2 assessed as residual activity at 1 uM in presence of [33P]ATP by filter binding assay relative to control
# [27] = target: Tyrosine-protein kinase ZAP-70 (Homo sapiens) (UniProt P43403); test: Inhibition of human ZAP70 assessed as residual activity at 1 uM in presence of [33P]ATP by filter binding assay relative to control
# [28] = target: Mitogen-activated protein kinase 12 (Homo sapiens) (UniProt P53778); test: Inhibition of human P38g MAPK assessed as residual activity at 1 uM in presence of [33P]ATP by filter binding assay relative to control
# [29] = target: Mitogen-activated protein kinase 11 (Homo sapiens) (UniProt Q15759); test: Inhibition of human P38b MAPK assessed as residual activity at 1 uM in presence of [33P]ATP by filter binding assay relative to control
# Chain of Ephrin type-B receptor 4 (Homo sapiens) (P54760 whole entry): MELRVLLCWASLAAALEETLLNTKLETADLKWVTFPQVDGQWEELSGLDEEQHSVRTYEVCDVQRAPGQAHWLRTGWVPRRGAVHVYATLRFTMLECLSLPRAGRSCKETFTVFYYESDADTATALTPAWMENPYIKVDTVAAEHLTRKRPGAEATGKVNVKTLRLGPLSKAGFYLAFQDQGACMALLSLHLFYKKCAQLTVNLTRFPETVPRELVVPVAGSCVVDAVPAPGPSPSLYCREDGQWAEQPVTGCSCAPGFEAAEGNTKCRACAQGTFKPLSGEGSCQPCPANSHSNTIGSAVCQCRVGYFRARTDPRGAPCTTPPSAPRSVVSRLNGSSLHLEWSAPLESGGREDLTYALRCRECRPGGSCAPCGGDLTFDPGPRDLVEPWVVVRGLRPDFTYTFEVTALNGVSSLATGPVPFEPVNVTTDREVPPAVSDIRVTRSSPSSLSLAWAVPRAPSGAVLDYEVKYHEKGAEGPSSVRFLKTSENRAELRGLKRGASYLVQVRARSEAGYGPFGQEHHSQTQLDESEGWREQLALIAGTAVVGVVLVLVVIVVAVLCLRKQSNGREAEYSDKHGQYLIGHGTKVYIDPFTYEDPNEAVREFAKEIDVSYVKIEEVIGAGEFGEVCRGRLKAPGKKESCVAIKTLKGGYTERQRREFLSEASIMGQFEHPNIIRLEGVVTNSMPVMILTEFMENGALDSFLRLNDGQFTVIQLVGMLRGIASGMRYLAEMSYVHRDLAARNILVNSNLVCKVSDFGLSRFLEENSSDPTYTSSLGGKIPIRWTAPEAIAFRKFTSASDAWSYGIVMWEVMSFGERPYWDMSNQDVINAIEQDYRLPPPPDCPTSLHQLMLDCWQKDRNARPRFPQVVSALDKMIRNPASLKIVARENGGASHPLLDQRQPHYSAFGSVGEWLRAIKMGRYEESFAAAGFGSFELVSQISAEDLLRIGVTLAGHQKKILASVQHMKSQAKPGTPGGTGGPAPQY
# Chain of High affinity nerve growth factor receptor (Homo sapiens) (P04629 33-796 limits assumed): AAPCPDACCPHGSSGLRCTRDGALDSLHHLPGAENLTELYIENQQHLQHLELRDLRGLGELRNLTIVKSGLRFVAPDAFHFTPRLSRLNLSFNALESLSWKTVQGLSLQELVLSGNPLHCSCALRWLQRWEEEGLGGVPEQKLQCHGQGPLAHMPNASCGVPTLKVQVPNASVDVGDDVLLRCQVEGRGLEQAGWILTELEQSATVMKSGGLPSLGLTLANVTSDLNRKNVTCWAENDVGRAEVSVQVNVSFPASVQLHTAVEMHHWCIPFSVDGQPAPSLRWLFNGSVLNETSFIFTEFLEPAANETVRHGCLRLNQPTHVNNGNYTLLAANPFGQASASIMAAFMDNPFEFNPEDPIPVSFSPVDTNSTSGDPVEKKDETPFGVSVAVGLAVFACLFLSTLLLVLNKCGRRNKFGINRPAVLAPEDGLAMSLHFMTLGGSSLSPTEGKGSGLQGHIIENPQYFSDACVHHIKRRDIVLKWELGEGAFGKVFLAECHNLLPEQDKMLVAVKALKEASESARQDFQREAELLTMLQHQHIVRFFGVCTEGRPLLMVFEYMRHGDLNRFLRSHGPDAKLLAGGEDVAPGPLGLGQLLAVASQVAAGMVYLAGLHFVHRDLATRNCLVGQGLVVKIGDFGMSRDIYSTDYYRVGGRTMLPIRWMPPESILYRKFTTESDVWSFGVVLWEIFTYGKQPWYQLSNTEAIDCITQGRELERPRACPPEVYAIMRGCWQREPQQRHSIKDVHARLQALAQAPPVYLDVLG
# Chain of Serine/threonine-protein kinase BRSK2 (Homo sapiens) (Q8IWQ3 whole entry): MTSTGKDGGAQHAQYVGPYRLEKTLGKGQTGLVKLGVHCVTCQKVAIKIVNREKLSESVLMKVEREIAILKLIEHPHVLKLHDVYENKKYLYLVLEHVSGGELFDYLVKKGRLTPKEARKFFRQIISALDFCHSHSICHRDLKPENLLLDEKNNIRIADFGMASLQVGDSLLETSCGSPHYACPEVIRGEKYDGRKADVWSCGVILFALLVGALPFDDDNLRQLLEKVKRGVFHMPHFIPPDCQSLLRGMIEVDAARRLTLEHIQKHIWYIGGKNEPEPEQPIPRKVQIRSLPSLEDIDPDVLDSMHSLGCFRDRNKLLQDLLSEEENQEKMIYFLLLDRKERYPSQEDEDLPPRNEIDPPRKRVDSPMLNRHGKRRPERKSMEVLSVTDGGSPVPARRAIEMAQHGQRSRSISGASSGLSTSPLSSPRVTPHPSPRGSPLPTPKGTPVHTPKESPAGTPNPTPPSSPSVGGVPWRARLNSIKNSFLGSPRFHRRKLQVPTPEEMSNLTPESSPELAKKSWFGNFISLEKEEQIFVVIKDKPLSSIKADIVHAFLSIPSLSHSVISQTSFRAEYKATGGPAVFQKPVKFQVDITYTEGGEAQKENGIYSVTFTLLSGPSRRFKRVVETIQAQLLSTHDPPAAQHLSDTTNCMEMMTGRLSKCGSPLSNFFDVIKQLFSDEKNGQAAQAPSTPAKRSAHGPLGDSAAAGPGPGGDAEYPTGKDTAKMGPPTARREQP
# Chain of Dual specificity testis-specific protein kinase 1 (Homo sapiens) (Q15569 whole entry, looked up): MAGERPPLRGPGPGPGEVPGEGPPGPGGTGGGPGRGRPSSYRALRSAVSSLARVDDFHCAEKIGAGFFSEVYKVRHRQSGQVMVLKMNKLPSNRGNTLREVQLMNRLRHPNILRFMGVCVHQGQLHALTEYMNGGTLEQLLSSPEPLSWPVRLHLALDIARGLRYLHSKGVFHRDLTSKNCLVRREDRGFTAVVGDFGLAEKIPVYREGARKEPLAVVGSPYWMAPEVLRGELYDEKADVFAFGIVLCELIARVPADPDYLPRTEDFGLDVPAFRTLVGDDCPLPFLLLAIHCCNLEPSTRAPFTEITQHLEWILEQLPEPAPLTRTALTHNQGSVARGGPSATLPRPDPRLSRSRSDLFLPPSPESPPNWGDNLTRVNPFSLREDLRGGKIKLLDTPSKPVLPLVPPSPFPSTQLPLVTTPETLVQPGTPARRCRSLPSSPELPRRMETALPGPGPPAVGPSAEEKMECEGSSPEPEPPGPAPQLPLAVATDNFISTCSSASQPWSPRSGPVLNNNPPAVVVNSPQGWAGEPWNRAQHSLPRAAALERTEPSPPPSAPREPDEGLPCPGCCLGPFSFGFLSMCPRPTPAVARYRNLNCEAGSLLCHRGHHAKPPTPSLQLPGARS
# Chain of Mitogen-activated protein kinase 15 (Homo sapiens) (Q8TD08 whole entry): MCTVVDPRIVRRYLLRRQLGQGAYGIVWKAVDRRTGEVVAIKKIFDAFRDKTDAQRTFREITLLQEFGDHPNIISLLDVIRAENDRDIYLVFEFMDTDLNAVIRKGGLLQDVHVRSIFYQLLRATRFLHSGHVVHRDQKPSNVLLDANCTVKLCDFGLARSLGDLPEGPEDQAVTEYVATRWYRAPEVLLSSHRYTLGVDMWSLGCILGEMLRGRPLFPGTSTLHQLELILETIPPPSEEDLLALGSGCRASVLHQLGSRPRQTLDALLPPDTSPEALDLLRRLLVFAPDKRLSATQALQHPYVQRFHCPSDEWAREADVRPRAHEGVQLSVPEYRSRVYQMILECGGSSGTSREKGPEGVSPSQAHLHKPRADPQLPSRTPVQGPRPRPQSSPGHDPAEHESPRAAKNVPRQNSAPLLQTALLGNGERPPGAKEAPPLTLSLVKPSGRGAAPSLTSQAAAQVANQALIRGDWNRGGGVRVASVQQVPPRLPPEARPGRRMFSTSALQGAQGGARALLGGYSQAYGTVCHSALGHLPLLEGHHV
# Chain of Rho-associated protein kinase 2 (Homo sapiens) (O75116 whole entry, looked up): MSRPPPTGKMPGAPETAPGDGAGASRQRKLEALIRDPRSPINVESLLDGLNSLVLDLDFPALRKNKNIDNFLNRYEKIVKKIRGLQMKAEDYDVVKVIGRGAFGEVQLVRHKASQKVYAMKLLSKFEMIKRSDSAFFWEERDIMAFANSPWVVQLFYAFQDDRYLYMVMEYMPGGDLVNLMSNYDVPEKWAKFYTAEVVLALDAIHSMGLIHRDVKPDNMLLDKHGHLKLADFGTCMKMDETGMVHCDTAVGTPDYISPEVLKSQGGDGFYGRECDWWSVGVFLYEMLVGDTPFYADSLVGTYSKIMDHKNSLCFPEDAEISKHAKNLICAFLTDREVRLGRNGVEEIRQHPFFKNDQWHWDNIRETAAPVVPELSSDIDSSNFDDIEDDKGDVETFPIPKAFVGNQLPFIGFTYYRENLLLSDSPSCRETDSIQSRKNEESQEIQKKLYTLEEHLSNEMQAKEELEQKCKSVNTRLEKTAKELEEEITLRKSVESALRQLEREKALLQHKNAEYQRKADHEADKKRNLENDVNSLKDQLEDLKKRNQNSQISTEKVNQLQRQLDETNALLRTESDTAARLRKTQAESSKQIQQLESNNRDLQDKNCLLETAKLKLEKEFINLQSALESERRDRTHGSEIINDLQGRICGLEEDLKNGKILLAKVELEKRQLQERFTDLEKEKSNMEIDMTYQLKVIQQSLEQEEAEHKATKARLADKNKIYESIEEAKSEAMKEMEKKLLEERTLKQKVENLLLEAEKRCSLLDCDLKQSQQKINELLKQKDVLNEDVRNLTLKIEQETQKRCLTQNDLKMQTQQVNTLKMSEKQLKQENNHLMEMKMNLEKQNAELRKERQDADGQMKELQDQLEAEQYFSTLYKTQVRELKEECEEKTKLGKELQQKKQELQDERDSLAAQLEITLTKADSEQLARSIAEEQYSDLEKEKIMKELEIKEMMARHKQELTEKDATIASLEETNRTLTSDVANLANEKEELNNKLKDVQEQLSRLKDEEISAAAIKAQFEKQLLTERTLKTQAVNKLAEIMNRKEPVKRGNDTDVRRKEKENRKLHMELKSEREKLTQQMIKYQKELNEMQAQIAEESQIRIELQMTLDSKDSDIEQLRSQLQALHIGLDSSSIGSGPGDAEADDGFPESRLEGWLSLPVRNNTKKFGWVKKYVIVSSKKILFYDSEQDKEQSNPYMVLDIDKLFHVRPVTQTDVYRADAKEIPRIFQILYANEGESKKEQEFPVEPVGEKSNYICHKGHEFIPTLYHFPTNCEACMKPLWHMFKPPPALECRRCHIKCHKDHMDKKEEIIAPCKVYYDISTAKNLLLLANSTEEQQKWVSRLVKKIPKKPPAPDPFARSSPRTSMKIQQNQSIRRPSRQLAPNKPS
structure (smiles),measurement,setting,value
NCCCC[C@H](NC(=O)[C@H](CC(=O)O)NC(=O)[C@H](CC(=O)O)NC(=O)[C@H](CC(=O)O)NC(=O)[C@H](CC(=O)O)NC(=O)[C@H](CC(=O)O)NC(=O)[C@H](CC(=O)O)NC(=O)CCCCCCCCOc1nc2cc(C(=O)O)ccc2c2cnccc12)C(=O)O (X1-DDDDDDK-OH),pIC50,[1],8.40
same,Activity,[2],8%
same,Activity,[3],10%
same,Activity,[4],11%
same,Activity,[5],31%
same,Activity,[6],42%
same,Activity,[7],56%
same,Activity,[8],65%
same,Activity,[9],79%
same,Activity,[10],81%
same,Activity,[11],84%
same,Activity,[12],85%
same,Activity,[13],85%
same,Activity,[14],86%
same,Activity,[15],86%
same,Activity,[16],87%
same,Activity,[17],90%
same,Activity,[18],90%
same,Activity,[19],90%
same,Activity,[20],91%
same,Activity,[21],92%
same,Activity,[22],93%
same,Activity,[23],94%
same,Activity,[24],94%
same,Activity,[25],96%
same,Activity,[26],99%
same,Activity,[27],103%
same,Activity,[28],107%
same,Activity,[29],107%
